# Assay results taken from PubChem BioAssay AID2060907 (Molecular Pharmacology Branch, DTP, NCI, 2025).
# System: 388556-164-R-J1-PDC complex spheroid viability
# Test: Anticancer human tumor 388556-164-R-J1-PDC patient-derived colon adenocarcinoma cell line growth inhibition [RAS]
# Conditions: for IC50: curve of first compound; for viability, T/C: stronger effect = lower value
# Procedure, shortened: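 Agents were tested in combination matrices in half-log decrements from a top concentration at or near clinical Cmax (10 microM if undetermined). Targets were multi-cell spheroids of tumour lines plus HUVEC and MSC stromal cells.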
# [1] = second compound 0.000949 µM, first compound 0.00316 µM
# [2] = second compound 0.000949 µM, first compound 0.01 µM
# [3] = second compound 0.000949 µM, first compound 0.0316 µM
# [4] = second compound 0.000949 µM, first compound 0.1 µM
# [5] = second compound 0.000949 µM, first compound 0.316 µM
# [6] = second compound 0.000949 µM, first compound 1 µM
# [7] = second compound 0.003 µM, first compound 0.00316 µM
# [8] = second compound 0.003 µM, first compound 0.01 µM
# [9] = second compound 0.003 µM, first compound 0.0316 µM
# [10] = second compound 0.003 µM, first compound 0.1 µM
# [11] = second compound 0.003 µM, first compound 0.316 µM
# [12] = second compound 0.003 µM, first compound 1 µM
# [13] = second compound 0.00949 µM, first compound 0.00316 µM
# [14] = second compound 0.00949 µM, first compound 0.01 µM
# [15] = second compound 0.00949 µM, first compound 0.0316 µM
# [16] = second compound 0.00949 µM, first compound 0.1 µM
# [17] = second compound 0.00949 µM, first compound 0.316 µM
# [18] = second compound 0.00949 µM, first compound 1 µM
# [19] = second compound 0.03 µM, first compound 0.00316 µM
# [20] = second compound 0.03 µM, first compound 0.01 µM
# [21] = second compound 0.03 µM, first compound 0.0316 µM
# [22] = second compound 0.03 µM, first compound 0.1 µM
# [23] = second compound 0.03 µM, first compound 0.316 µM
# [24] = second compound 0.03 µM, first compound 1 µM
# [25] = second compound 0.0949 µM, first compound 0.00316 µM
# [26] = second compound 0.0949 µM, first compound 0.01 µM
# [27] = second compound 0.0949 µM, first compound 0.0316 µM
# [28] = second compound 0.0949 µM, first compound 0.1 µM
# [29] = second compound 0.0949 µM, first compound 0.316 µM
# [30] = second compound 0.0949 µM, first compound 1 µM
# [31] = second compound 0.3 µM, first compound 0.00316 µM
# [32] = second compound 0.3 µM, first compound 0.01 µM
# [33] = second compound 0.3 µM, first compound 0.0316 µM
# [34] = second compound 0.3 µM, first compound 0.1 µM
# [35] = second compound 0.3 µM, first compound 0.316 µM
# [36] = second compound 0.3 µM, first compound 1 µM
# 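Also: spheroids exposed to compound for 7 days before readout.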
# 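For viability, T/C in this document: 100% = DMSO vehicle control luminescence.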
smiles,measurement,setting,value
C=CC(=O)N1CCN(c2nc(OCC3CCCN3C)nc3c(F)c(-c4nc(N)cc(C)c4C(F)(F)F)c(Cl)cc23)C(C)C1 (stereo not drawn) + CCn1c(-c2cc(N3CCN(C)CC3)cnc2C(C)OC)c2c3cc(ccc31)-c1csc(n1)CC(NC(=O)C1CC1C)C(=O)N1CCCC(N1)C(=O)OCC(C)(C)C2,IC50,second compound 0.000949 µM,> 1000 nM
same,IC50,second compound 0.003 µM,> 1000 nM
same,IC50,second compound 0.00949 µM,> 1000 nM
same,IC50,second compound 0.03 µM,> 1000 nM
same,IC50,second compound 0.0949 µM,< 3.16 nM
same,IC50,second compound 0.3 µM,< 3.16 nM
same,"viability, T/C",[1],90.9%
same,"viability, T/C",[2],97.7%
same,"viability, T/C",[3],86.2%
same,"viability, T/C",[4],91.5%
same,"viability, T/C",[5],92.1%
same,"viability, T/C",[6],93.5%
same,"viability, T/C",[7],94.8%
same,"viability, T/C",[8],83.5%
same,"viability, T/C",[9],92.7%
same,"viability, T/C",[10],86.9%
same,"viability, T/C",[11],86.5%
same,"viability, T/C",[12],84.2%
same,"viability, T/C",[13],87%
same,"viability, T/C",[14],79.5%
same,"viability, T/C",[15],78.8%
same,"viability, T/C",[16],70.4%
same,"viability, T/C",[17],85%
same,"viability, T/C",[18],65.9%
same,"viability, T/C",[19],63.6%
same,"viability, T/C",[20],68.7%
same,"viability, T/C",[21],62.2%
same,"viability, T/C",[22],62.3%
same,"viability, T/C",[23],63.3%
same,"viability, T/C",[24],62%
same,"viability, T/C",[25],43.2%
same,"viability, T/C",[26],39.9%
same,"viability, T/C",[27],43.1%
same,"viability, T/C",[28],49.5%
same,"viability, T/C",[29],52.8%
same,"viability, T/C",[30],45.6%
same,"viability, T/C",[31],33.2%
same,"viability, T/C",[32],31%
same,"viability, T/C",[33],30.9%
same,"viability, T/C",[34],34.9%
same,"viability, T/C",[35],38%
same,"viability, T/C",[36],32%
CC1(C)CCC(Nc2ncc(C(F)(F)F)c(-c3c[nH]c4c(P(C)(C)=O)c(C#N)ccc34)n2)CN1 (stereo not drawn) + CCn1c(-c2cc(N3CCN(C)CC3)cnc2C(C)OC)c2c3cc(ccc31)-c1csc(n1)CC(NC(=O)C1CC1C)C(=O)N1CCCC(N1)C(=O)OCC(C)(C)C2,IC50,second compound 0.000949 µM,> 300 nM
same,IC50,second compound 0.003 µM,> 300 nM
same,IC50,second compound 0.00949 µM,> 300 nM
same,IC50,second compound 0.03 µM,> 300 nM
same,IC50,second compound 0.0949 µM,3.41 nM
same,IC50,second compound 0.3 µM,< 0.949 nM
same,"viability, T/C","second compound 0.000949 µM, first compound 0.000949 µM",104%
same,"viability, T/C","second compound 0.000949 µM, first compound 0.003 µM",87.9%
same,"viability, T/C","second compound 0.000949 µM, first compound 0.00949 µM",98.1%
same,"viability, T/C","second compound 0.000949 µM, first compound 0.03 µM",78.5%
same,"viability, T/C","second compound 0.000949 µM, first compound 0.0949 µM",83.8%
same,"viability, T/C","second compound 0.000949 µM, first compound 0.3 µM",84.9%
same,"viability, T/C","second compound 0.003 µM, first compound 0.000949 µM",101%
same,"viability, T/C","second compound 0.003 µM, first compound 0.003 µM",86.9%
same,"viability, T/C","second compound 0.003 µM, first compound 0.00949 µM",82.5%
same,"viability, T/C","second compound 0.003 µM, first compound 0.03 µM",86.8%
same,"viability, T/C","second compound 0.003 µM, first compound 0.0949 µM",85.3%
same,"viability, T/C","second compound 0.003 µM, first compound 0.3 µM",77.1%
same,"viability, T/C","second compound 0.00949 µM, first compound 0.000949 µM",84.2%
same,"viability, T/C","second compound 0.00949 µM, first compound 0.003 µM",73.3%
same,"viability, T/C","second compound 0.00949 µM, first compound 0.00949 µM",75.8%
same,"viability, T/C","second compound 0.00949 µM, first compound 0.03 µM",72.5%
same,"viability, T/C","second compound 0.00949 µM, first compound 0.0949 µM",74.6%
same,"viability, T/C","second compound 0.00949 µM, first compound 0.3 µM",68.9%
same,"viability, T/C","second compound 0.03 µM, first compound 0.000949 µM",77.4%
same,"viability, T/C","second compound 0.03 µM, first compound 0.003 µM",70%
same,"viability, T/C","second compound 0.03 µM, first compound 0.00949 µM",64.5%
same,"viability, T/C","second compound 0.03 µM, first compound 0.03 µM",67.9%
same,"viability, T/C","second compound 0.03 µM, first compound 0.0949 µM",71.6%
same,"viability, T/C","second compound 0.03 µM, first compound 0.3 µM",58.2%
same,"viability, T/C","second compound 0.0949 µM, first compound 0.000949 µM",55.5%
same,"viability, T/C","second compound 0.0949 µM, first compound 0.003 µM",47.1%
same,"viability, T/C","second compound 0.0949 µM, first compound 0.00949 µM",47.9%
same,"viability, T/C","second compound 0.0949 µM, first compound 0.03 µM",44.1%
same,"viability, T/C","second compound 0.0949 µM, first compound 0.0949 µM",48.8%
same,"viability, T/C","second compound 0.0949 µM, first compound 0.3 µM",46.1%
same,"viability, T/C","second compound 0.3 µM, first compound 0.000949 µM",33%
same,"viability, T/C","second compound 0.3 µM, first compound 0.003 µM",34.5%
same,"viability, T/C","second compound 0.3 µM, first compound 0.00949 µM",33.1%
same,"viability, T/C","second compound 0.3 µM, first compound 0.03 µM",35.9%
same,"viability, T/C","second compound 0.3 µM, first compound 0.0949 µM",41.5%
same,"viability, T/C","second compound 0.3 µM, first compound 0.3 µM",37.4%
C=CC(=O)Nc1cc(Nc2nccc(-c3cn(C)c4ccccc34)n2)c(OC)cc1N(C)CCN(C)C + CCn1c(-c2cccnc2C(C)OC)c2c3cc(ccc31)N1CCOC(CC(NC(=O)C(C(C)C)N(C)C(=O)C3(F)CCN(C(=O)C#CC(C)(C)N(C)C)CC3)C(=O)N3CCCC(N3)C(=O)OCC(C)(C)C2)C1,IC50,second compound 0.000949 µM,> 1000 nM
same,IC50,second compound 0.003 µM,> 1000 nM
same,IC50,second compound 0.00949 µM,> 1000 nM
same,IC50,second compound 0.03 µM,974 nM
same,IC50,second compound 0.0949 µM,864 nM
same,IC50,second compound 0.3 µM,849 nM
same,"viability, T/C",[1],98.7%
same,"viability, T/C",[2],93.3%
same,"viability, T/C",[3],91.5%
same,"viability, T/C",[4],88.5%
same,"viability, T/C",[5],75.2%
same,"viability, T/C",[6],53.4%
same,"viability, T/C",[7],108%
same,"viability, T/C",[8],108%
same,"viability, T/C",[9],101%
same,"viability, T/C",[10],83.6%
same,"viability, T/C",[11],73.8%
same,"viability, T/C",[12],53.4%
same,"viability, T/C",[13],105%
same,"viability, T/C",[14],107%
same,"viability, T/C",[15],90.9%
same,"viability, T/C",[16],80.2%
same,"viability, T/C",[17],82.3%
same,"viability, T/C",[18],54.1%
same,"viability, T/C",[19],107%
same,"viability, T/C",[20],96.2%
same,"viability, T/C",[21],101%
same,"viability, T/C",[22],88.1%
same,"viability, T/C",[23],70.6%
same,"viability, T/C",[24],49.5%
same,"viability, T/C",[25],105%
same,"viability, T/C",[26],108%
same,"viability, T/C",[27],95.9%
same,"viability, T/C",[28],93.9%
same,"viability, T/C",[29],75%
same,"viability, T/C",[30],46%
same,"viability, T/C",[31],98.5%
same,"viability, T/C",[32],89.3%
same,"viability, T/C",[33],89.5%
same,"viability, T/C",[34],81.5%
same,"viability, T/C",[35],69.4%
same,"viability, T/C",[36],46.3%
O=C(c1ccc(F)c(F)c1Nc1ccc(I)cc1F)N1CC(O)([C@@H]2CCCCN2)C1 + CCn1c(-c2cccnc2C(C)OC)c2c3cc(ccc31)N1CCOC(CC(NC(=O)C(C(C)C)N(C)C(=O)C3(F)CCN(C(=O)C#CC(C)(C)N(C)C)CC3)C(=O)N3CCCC(N3)C(=O)OCC(C)(C)C2)C1,IC50,second compound 0.000949 µM,241 nM
same,IC50,second compound 0.003 µM,173 nM
same,IC50,second compound 0.00949 µM,247 nM
same,IC50,second compound 0.03 µM,185 nM
same,IC50,second compound 0.0949 µM,175 nM
same,IC50,second compound 0.3 µM,172 nM
same,"viability, T/C",[1],94%
same,"viability, T/C",[2],91.1%
same,"viability, T/C",[3],81.7%
same,"viability, T/C",[4],70.6%
same,"viability, T/C",[5],43%
same,"viability, T/C",[6],25.2%
same,"viability, T/C",[7],104%
same,"viability, T/C",[8],97.3%
same,"viability, T/C",[9],76.4%
same,"viability, T/C",[10],60.8%
same,"viability, T/C",[11],39.5%
same,"viability, T/C",[12],22.5%
same,"viability, T/C",[13],100%
same,"viability, T/C",[14],96.8%
same,"viability, T/C",[15],77.7%
same,"viability, T/C",[16],64.8%
same,"viability, T/C",[17],47.6%
same,"viability, T/C",[18],22.6%
same,"viability, T/C",[19],115%
same,"viability, T/C",[20],98.1%
same,"viability, T/C",[21],89.9%
same,"viability, T/C",[22],62.5%
same,"viability, T/C",[23],37.6%
same,"viability, T/C",[24],22.3%
same,"viability, T/C",[25],102%
same,"viability, T/C",[26],97.5%
same,"viability, T/C",[27],84.8%
same,"viability, T/C",[28],57.8%
same,"viability, T/C",[29],41.5%
same,"viability, T/C",[30],23.3%
same,"viability, T/C",[31],81.5%
same,"viability, T/C",[32],81.8%
same,"viability, T/C",[33],72.8%
same,"viability, T/C",[34],59.1%
same,"viability, T/C",[35],39.7%
same,"viability, T/C",[36],20.2%
